Patent US10369186B2, “Method of treating decline in brain function comprising coadministration of citrulline and glutathione” (KYOWA HAKKO BIO CO., LTD., priority 2012, dated 2019)

Tests used:
[1] = tested on: C57BL/6J mice; assay: Y-maze test (spontaneous alternation behavior) after bilateral common carotid arteries occlusion; assay type: in vivo; conditions: oral, 7 days, FIG. 1
Experimental: (§1) Experimental Example: 10-week-old male C57BL/6J mice (CLEA Japan, Inc. approximately 25 g of average body weight per mouse) were preliminarily acclimated for 1 week, and provided for experiments. Citrulline and glutathione were obtained from KYOWA HAKKO BIO CO., LTD.
(§2) C57BL/6J mice were divided into a sham-operation group (Group 1) and a bilateral common carotid arteries occlusion group, which was performed under halothane anesthesia for 20 minutes. One day after reperfusion, the bilateral common carotid arteries occlusion group was further divided into a distilled water-treated group (Group 2), a low-dose citrulline-treated group (40 mg/kg: Group 3), a low-dose glutathione-treated group (40 mg/kg: Group 4), a high-dose citrulline-treated group (100 mg/kg: Group 5), a high-dose glutathione-treated group (100 mg/kg: Group 6), and a combination treatment group of a low dose of citrulline and a low dose of glutathione (each 40 mg/kg: Group 7). Each sample was orally administered for 12 days. One week after starting administration, learning memory-improving effects were examined by a Y-maze test, a passive avoidance test, and a novel object recognition test. After evaluating learning memory functions, the hippocampus was removed and viability of hippocampal nerve cells was evaluated.
In the Y-maze test, a Y-maze apparatus with three arms (50×16×32 cm) was used. Mice were placed at any one arm of the Y-maze and were allowed to explore freely through the maze for 8 minutes. The sequence of arm entries was recorded. The number of entries into each arm was counted during the measurement time, which was defined as the total number of entries. Of them, the successive entry into the three different arms was examined, and this number was defined as the spontaneous alternation behavior number. The spontaneous alternation behavior number was divided by (the total number of arm entries minus two), and then multiplied by 100, which was defined as the spontaneous alternation behavior rate (Alternation) and used as an index for spontaneous alternation behavior.

[2] = tested on: hippocampal nerve cells; assay: Evaluation of viability of hippocampal nerve cells after bilateral common carotid arteries occlusion; assay type: in vivo, mice; conditions: oral, 12 days, CA1 pyramidal cell layer, FIG. 4
Experimental: as §1, §2
Twelve days after bilateral occlusion of the common carotid arteries, mice were anesthetized with pentobarbital sodium, and perfused with ice-cold phosphate buffer (PBS, pH 7.4) until the blood in the body was completely removed. Immediately, mice were perfused with a fixative solution containing 4% paraformaldehyde. The brain tissues were fixed at 4° C. for 24 hours, and coronal sections having a thickness of 50 μm were prepared. Serial sections containing the hippocampus were stained with propidium iodide (PI, 5 μmol/L) dissolved in PBS and observed under a fluorescent microscope. Surviving and non-surviving nerve cells in the CA1 pyramidal cell layer of the hippocampus were counted at 1.4 to 1.8 mm posterior to bregma, and cells with PI-positive nuclei and typical morphological characteristics were defined as […]. The cell viability was calculated from a ratio to the average number of surviving nerve cells in Group 1.

[3] = tested on: C57BL/6J mice; assay: Novel object recognition test after bilateral common carotid arteries occlusion; assay type: in vivo; conditions: oral, 7 days, FIG. 3
Experimental: as §1, §2
The novel object recognition test was performed after mice were individually acclimated to the open field apparatus (35×25×35 cm) for 2 days. During training, mice were allowed to explore freely for 10 minutes in an apparatus where two identical objects were symmetrically placed. After 1 hour, one object was replaced by a novel object, and mice were allowed to explore freely for 5 minutes. Object exploration was defined as standing on the objects, touching the object with the nose, or sniffing the object within 1 cm from the object. A ratio of the frequency of exploring the familiar or novel object over the total exploration frequency was calculated, and used as an index for visual recognition memory.

[4] = tested on: C57BL/6J mice; assay: Passive avoidance test after bilateral common carotid arteries occlusion; assay type: in vivo; conditions: oral, 7 days, FIG. 2
Experimental: as §1, §2
The passive avoidance test was performed using a box consisting of dark (25×25×25 cm) and light compartments (14×10×25 cm) and being equipped with an electrical stimulation apparatus at the bottom of the dark compartment. During training, as soon as the mouse entered the dark compartment from the light compartment, the door was closed, and an electrical stimulation (0.3 mA, for 2 seconds) was delivered. Twenty four hours after training, the mouse was placed again in the light compartment, and the latency time spent in the light compartment was recorded with a maximum latency of 300 seconds.

[5] = high dose 100 mg/kg alone (Group 5 citrulline, Group 6 glutathione)
[6] = low dose 40 mg/kg alone (Group 3 citrulline, Group 4 glutathione), vs distilled water Group 2
[7] = low dose 40 mg/kg alone (Group 3 citrulline, Group 4 glutathione), vs Group 2
[8] = low dose 40 mg/kg alone (Group 3 citrulline, Group 4 glutathione)

Structure (SMILES)	spontaneous alternation behavior rate (Alternation) [1, 5]	spontaneous alternation behavior rate (Alternation) [1, 6]	viability of hippocampal nerve cells [2, 5]	viability of hippocampal nerve cells [2, 7]	frequency of exploring the novel object [3, 5]	frequency of exploring the novel object [3, 8]	time spent in the light compartment (Latency time) [4, 5]	time spent in the light compartment (Latency time) [4, 7]
NC(=O)NCCC[C@H](N)C(=O)O [citrulline]	remarkably improved effect of memory behavior	Alternation cannot be improved	nerve cell-protecting effect	viability of hippocampal nerve cells cannot be improved	remarkably improved effect of memory behavior	frequency of exploring the novel object cannot be increased	remarkably improved effect of memory behavior	latency time cannot be improved
N[C@@H](CCC(=O)N[C@@H](CS)C(=O)NCC(=O)O)C(=O)O [glutathione]	remarkably improved effect of memory behavior	Alternation cannot be improved	nerve cell-protecting effect	viability of hippocampal nerve cells cannot be improved	remarkably improved effect of memory behavior	frequency of exploring the novel object cannot be increased	remarkably improved effect of memory behavior	latency time cannot be improved
